# Source: US12122763B2, “Substituted piperidines for androgen receptor degradation” (UBIX THERAPEUTICS, INC., priority 2020, dated 2024)
# Target: T1, Androgen Receptor (AR) protein (Homo sapiens, UniProt P10275, T878A)
# T1 construct: endogenous in cells; host or cells: LNCaP
# Experiment: Androgen Receptor (AR) protein degradation assay in LNCaP cells, western blotting
# Format: cell-based
# Settings: 20 h; for inhibition at 0.01 µM: 0.01 μM compound; for inhibition at 0.1 µM: 0.1 μM compound; for inhibition at 1 µM: 1 μM compound
# Summary of the method: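 LNCaP prostate cancer cells were cultured 3 days, then treated with compound for 20 h. Lysates in 1% SDS buffer were normalised by BCA, and 8 μg protein was run on 4–12% Bis-Tris gels. AR was immunoblotted with chemiluminescence, using GAPDH/β-actin as loading controls.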
# T1 sequence (P10275 whole entry T878A): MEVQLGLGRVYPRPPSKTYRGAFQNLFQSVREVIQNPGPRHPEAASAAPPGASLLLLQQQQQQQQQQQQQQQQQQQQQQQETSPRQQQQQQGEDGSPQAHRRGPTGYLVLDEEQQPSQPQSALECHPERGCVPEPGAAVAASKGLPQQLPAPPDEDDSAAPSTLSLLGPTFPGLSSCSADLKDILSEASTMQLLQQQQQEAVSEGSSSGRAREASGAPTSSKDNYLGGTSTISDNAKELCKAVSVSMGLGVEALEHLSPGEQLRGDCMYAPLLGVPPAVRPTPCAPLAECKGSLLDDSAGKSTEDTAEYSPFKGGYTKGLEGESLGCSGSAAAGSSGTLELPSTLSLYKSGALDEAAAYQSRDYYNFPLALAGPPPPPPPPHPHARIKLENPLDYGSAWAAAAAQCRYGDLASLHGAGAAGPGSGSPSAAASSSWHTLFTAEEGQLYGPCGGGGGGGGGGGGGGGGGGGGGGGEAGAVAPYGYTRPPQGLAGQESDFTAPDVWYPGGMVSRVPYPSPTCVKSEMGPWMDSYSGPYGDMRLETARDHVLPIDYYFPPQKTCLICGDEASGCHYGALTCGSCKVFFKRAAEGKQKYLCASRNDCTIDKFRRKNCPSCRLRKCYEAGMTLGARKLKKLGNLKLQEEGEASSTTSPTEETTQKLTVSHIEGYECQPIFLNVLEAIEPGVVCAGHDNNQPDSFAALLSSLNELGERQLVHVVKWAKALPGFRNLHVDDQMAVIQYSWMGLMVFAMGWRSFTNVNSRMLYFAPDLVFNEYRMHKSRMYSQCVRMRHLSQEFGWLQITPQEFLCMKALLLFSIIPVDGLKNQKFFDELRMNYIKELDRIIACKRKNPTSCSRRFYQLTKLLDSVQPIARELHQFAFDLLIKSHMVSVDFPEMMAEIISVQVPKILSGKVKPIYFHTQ
# T1 sequence (Q96SW2 whole entry partner): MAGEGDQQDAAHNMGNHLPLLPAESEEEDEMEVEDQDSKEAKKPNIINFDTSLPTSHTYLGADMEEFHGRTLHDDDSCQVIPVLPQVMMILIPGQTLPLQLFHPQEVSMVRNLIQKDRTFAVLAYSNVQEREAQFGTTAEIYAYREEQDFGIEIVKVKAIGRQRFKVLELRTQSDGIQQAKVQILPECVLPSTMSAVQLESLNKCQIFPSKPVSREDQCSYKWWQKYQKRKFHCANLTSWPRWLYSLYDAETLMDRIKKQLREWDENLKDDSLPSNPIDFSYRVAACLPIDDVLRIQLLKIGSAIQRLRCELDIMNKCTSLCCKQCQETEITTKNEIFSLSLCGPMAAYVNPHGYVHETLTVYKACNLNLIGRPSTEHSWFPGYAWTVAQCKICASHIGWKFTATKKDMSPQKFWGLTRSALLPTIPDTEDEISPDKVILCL
compound,measurement,value
"N#Cc1ccc(N2CCC(C(=O)Nc3ccc(CN4CCN(CC5CCN(c6ccc7c(c6)C(=O)N(C6CCC(=O)NC6=O)C7=O)CC5)CC4)cn3)CC2)cc1C(F)(F)F (stereo not drawn) [Example 162, 1-(4-cyano-3-(trifluoromethyl)phenyl)-N-(5-((4-((1-(2-(2,6-dioxopiperidin-3-yl)-1,3-dioxoisoindolin-5-yl)piperidin-4-yl)methyl)piperazin-1-yl)methyl)pyridin-2-yl)piperidine-4-carboxamide]",inhibition at 0.01 µM,62%
same,inhibition at 0.1 µM,95%
same,inhibition at 1 µM,97%
"N#Cc1ccc(N2CCC(C(=O)Nc3ccc(CN4CCC(CN5CCC(Oc6ccc7c(c6)C(=O)N(C6CCC(=O)NC6=O)C7=O)CC5)CC4)cn3)CC2)cc1C(F)(F)F (stereo not drawn) [Example 163, 1-(4-cyano-3-(trifluoromethyl)phenyl)-N-(5-((4-((4-((2-(2,6-dioxopiperidin-3-yl)-1,3-dioxoisoindolin-5-yl)oxy)piperidin-1-yl)methyl)piperidin-1-yl)methyl)pyridin-2-yl)piperidine-4-carboxamide]",inhibition at 0.01 µM,-14%
same,inhibition at 0.1 µM,60%
same,inhibition at 1 µM,78%
"N#Cc1ccc(N2CCC(C(=O)Nc3ccc(CC4CCN(CC5CCN(c6ccc7c(c6)C(=O)N(C6CCC(=O)NC6=O)C7=O)CC5)CC4)cn3)CC2)cc1C(F)(F)F (stereo not drawn) [Example 164, 1-(4-cyano-3-(trifluoromethyl)phenyl)-N-(5-((1-((1-(2-(2,6-dioxopiperidin-3-yl)-1,3-dioxoisoindolin-5-yl)piperidin-4-yl)methyl)piperidin-4-yl)methyl)pyridin-2-yl)piperidine-4-carboxamide]",inhibition at 0.01 µM,79%
same,inhibition at 0.1 µM,96%
same,inhibition at 1 µM,97%
"N#Cc1ccc(N2CCC(C(=O)Nc3ccc(CCN4CCC(CN5CCN(c6ccc7c(c6)C(=O)N(C6CCC(=O)NC6=O)C7=O)CC5)CC4)cn3)CC2)cc1C(F)(F)F (stereo not drawn) [Example 165, 1-(4-cyano-3-(trifluoromethyl)phenyl)-N-(5-(2-(4-((4-(2-(2,6-dioxopiperidin-3-yl)-1,3-dioxoisoindolin-5-yl)piperazin-1-yl)methyl)piperidin-1-yl)ethyl)pyridin-2-yl)piperidine-4-carboxamide]",inhibition at 0.01 µM,42%
same,inhibition at 0.1 µM,87%
same,inhibition at 1 µM,95%
"N#Cc1ccc(N2CCC(C(=O)Nc3ccc(CCN4CCN(CC5CCN(c6ccc7c(c6)C(=O)N(C6CCC(=O)NC6=O)C7=O)CC5)CC4)cn3)CC2)cc1C(F)(F)F (stereo not drawn) [Example 166, 1-(4-cyano-3-(trifluoromethyl)phenyl)-N-(5-(2-(4-((1-(2-(2,6-dioxopiperidin-3-yl)-1,3-dioxoisoindolin-5-yl)piperidin-4-yl)methyl)piperazin-1-yl)ethyl)pyridin-2-yl)piperidine-4-carboxamide]",inhibition at 0.01 µM,69%
same,inhibition at 0.1 µM,96%
same,inhibition at 1 µM,97%
"N#Cc1ccc(N2CCC(C(=O)Nc3ccc(CCN4CCC(Oc5ccc6c(c5)C(=O)N(C5CCC(=O)NC5=O)C6=O)CC4)cn3)CC2)cc1C(F)(F)F (stereo not drawn) [Example 167, 1-(4-cyano-3-(trifluoromethyl)phenyl)-N-(5-(2-(4-((2-(2,6-dioxopiperidin-3-yl)-1,3-dioxoisoindolin-5-yl)oxy)piperidin-1-yl)ethyl)pyridin-2-yl)piperidine-4-carboxamide]",inhibition at 0.01 µM,25%
same,inhibition at 0.1 µM,67%
same,inhibition at 1 µM,85%
"N#Cc1ccc(N2CCC(C(=O)Nc3ccc(OCCN4CCN(CC5CCN(c6ccc7c(c6)C(=O)N(C6CCC(=O)NC6=O)C7=O)CC5)CC4)cn3)CC2)cc1C(F)(F)F (stereo not drawn) [Example 168, 1-(4-cyano-3-(trifluoromethyl)phenyl)-N-(5-(2-(4-((1-(2-(2,6-dioxopiperidin-3-yl)-1,3-dioxoisoindolin-5-yl)piperidin-4-yl)methyl)piperazin-1-yl)ethoxy)pyridin-2-yl)piperidine-4-carboxamide]",inhibition at 0.01 µM,73%
same,inhibition at 0.1 µM,97%
same,inhibition at 1 µM,99%
"N#Cc1ccc(N2CCC(C(=O)Nc3ccc(OC4CCN(CC5CCN(c6cc7c(cc6F)C(=O)N(C6CCC(=O)NC6=O)C7=O)CC5)CC4)cn3)CC2)cc1C(F)(F)F (stereo not drawn) [Example 170, 1-(4-cyano-3-(trifluoromethyl)phenyl)-N-(5-((1-((1-(2-(2,6-dioxopiperidin-3-yl)-6-fluoro-1,3-dioxoisoindolin-5-yl)piperidin-4-yl)methyl)piperidin-4-yl)oxy)pyridin-2-yl)piperidine-4-carboxamide]",inhibition at 0.01 µM,52%
same,inhibition at 0.1 µM,90%
same,inhibition at 1 µM,97%
"N#Cc1ccc(N2CCC(C(=O)Nc3ccc(OC4CCN(CC5CN(c6ccc7c(c6)C(=O)N(C6CCC(=O)NC6=O)C7=O)C5)CC4)cn3)CC2)cc1C(F)(F)F (stereo not drawn) [Example 171, 1-(4-cyano-3-(trifluoromethyl)phenyl)-N-(5-((1-((1-(2-(2,6-dioxopiperidin-3-yl)-1,3-dioxoisoindolin-5-yl)azetidin-3-yl)methyl)piperidin-4-yl)oxy)pyridin-2-yl)piperidine-4-carboxamide]",inhibition at 0.01 µM,69%
same,inhibition at 0.1 µM,93%
same,inhibition at 1 µM,95%
"CC1(CN2CCC(Oc3ccc(NC(=O)C4CCN(c5ccc(C#N)c(C(F)(F)F)c5)CC4)nc3)CC2)CN(c2ccc3c(c2)C(=O)N(C2CCC(=O)NC2=O)C3=O)C1 (stereo not drawn) [Example 172, 1-(4-cyano-3-(trifluoromethyl)phenyl)-N-(5-((1-((1-(2-(2,6-dioxopiperidin-3-yl)-1,3-dioxoisoindolin-5-yl)-3-methylazetidin-3-yl)methyl)piperidin-4-yl)oxy)pyridin-2-yl)piperidine-4-carboxamide]",inhibition at 0.01 µM,56%
same,inhibition at 0.1 µM,91%
same,inhibition at 1 µM,91%
"N#Cc1ccc(N2CCC(C(=O)Nc3ccc(OC4CN(CC5CCN(c6ccc7c(c6)C(=O)N(C6CCC(=O)NC6=O)C7=O)CC5)C4)cn3)CC2)cc1C(F)(F)F (stereo not drawn) [Example 173, 1-(4-cyano-3-(trifluoromethyl)phenyl)-N-(5-((1-((1-(2-(2,6-dioxopiperidin-3-yl)-1,3-dioxoisoindolin-5-yl)piperidin-4-yl)methyl)azetidin-3-yl)oxy)pyridin-2-yl)piperidine-4-carboxamide]",inhibition at 0.01 µM,58%
same,inhibition at 0.1 µM,90%
same,inhibition at 1 µM,92%
"N#Cc1ccc(N2CCC(C(=O)Nc3ccc(OCC4CCN(CC5CCN(c6ccc7c(c6)C(=O)N(C6CCC(=O)NC6=O)C7=O)CC5)CC4)cn3)CC2)cc1C(F)(F)F (stereo not drawn) [Example 174, 1-(4-cyano-3-(trifluoromethyl)phenyl)-N-(5-((1-((1-(2-(2,6-dioxopiperidin-3-yl)-1,3-dioxoisoindolin-5-yl)piperidin-4-yl)methyl)piperidin-4-yl)methoxy)pyridin-2-yl)piperidine-4-carboxamide]",inhibition at 0.01 µM,73%
same,inhibition at 0.1 µM,91%
same,inhibition at 1 µM,95%
"N#Cc1ccc(N2CCC(C(=O)Nc3ccc(OCCC4CCN(CC5CCN(c6ccc7c(c6)C(=O)N(C6CCC(=O)NC6=O)C7=O)CC5)CC4)cn3)CC2)cc1C(F)(F)F (stereo not drawn) [Example 175, 1-(4-cyano-3-(trifluoromethyl)phenyl)-N-(5-(2-(1-((1-(2-(2,6-dioxopiperidin-3-yl)-1,3-dioxoisoindolin-5-yl)piperidin-4-yl)methyl)piperidin-4-yl)ethoxy)pyridin-2-yl)piperidine-4-carboxamide]",inhibition at 0.01 µM,70%
same,inhibition at 0.1 µM,95%
same,inhibition at 1 µM,97%
"N#Cc1ccc(N2CCC(C(=O)Nc3ccc(OCCN4CCN(CC(=O)Nc5cccc(NC6CCC(=O)NC6=O)c5)CC4)cn3)CC2)cc1C(F)(F)F (stereo not drawn) [Example 176, 1-(4-cyano-3-(trifluoromethyl)phenyl)-N-(5-(2-(4-(2-((3-((2,6-dioxopiperidin-3-yl)amino)phenyl)amino)-2-oxoethyl)piperazin-1-yl)ethoxy)pyridin-2-yl)piperidine-4-carboxamide]",inhibition at 0.01 µM,-2%
same,inhibition at 0.1 µM,-22%
same,inhibition at 1 µM,16%
"N#Cc1ccc(N2CCC(C(=O)Nc3ccc(N4CCC(CN5CCN(CC(=O)Nc6cccc(NC7CCC(=O)NC7=O)c6)CC5)CC4)cn3)CC2)cc1C(F)(F)F (stereo not drawn) [Example 177, 1-(4-cyano-3-(trifluoromethyl)phenyl)-N-(5-(4-((4-(2-((3-((2,6-dioxopiperidin-3-yl)amino)phenyl)amino)-2-oxoethyl)piperazin-1-yl)methyl)piperidin-1-yl)pyridin-2-yl)piperidine-4-carboxamide]",inhibition at 0.01 µM,14%
same,inhibition at 0.1 µM,37%
same,inhibition at 1 µM,35%
"N#Cc1ccc(N2CCC(C(=O)Nc3ccc(OCCN4CCC(Oc5ccc6c(c5)C(=O)N(C5CCC(=O)NC5=O)C6=O)CC4)cn3)CC2)cc1C(F)(F)F (stereo not drawn) [Example 178, 1-(4-cyano-3-(trifluoromethyl)phenyl)-N-(5-(2-(4-((2-(2,6-dioxopiperidin-3-yl)-1,3-dioxoisoindolin-5-yl)oxy)piperidin-1-yl)ethoxy)pyridin-2-yl)piperidine-4-carboxamide]",inhibition at 0.01 µM,23%
same,inhibition at 0.1 µM,64%
same,inhibition at 1 µM,87%
"CC1(CN2CCN(CC3CCN(c4ccc5c(c4)C(=O)N(C4CCC(=O)NC4=O)C5=O)CC3)CC2)CN(c2ccc(NC(=O)C3CCN(c4ccc(C#N)c(C(F)(F)F)c4)CC3)nc2)C1 (stereo not drawn) [Example 179, 1-(4-cyano-3-(trifluoromethyl)phenyl)-N-(5-(3-((4-((1-(2-(2,6-dioxopiperidin-3-yl)-1,3-dioxoisoindolin-5-yl)piperidin-4-yl)methyl)piperazin-1-yl)methyl)-3-methylazetidin-1-yl)pyridin-2-yl)piperidine-4-carboxamide]",inhibition at 0.01 µM,73%
same,inhibition at 0.1 µM,98%
same,inhibition at 1 µM,97%
"CC1(CN2CCC(COc3ccc4c(c3)C(=O)N(C3CCC(=O)NC3=O)C4=O)CC2)CN(c2ccc(NC(=O)C3CCN(c4ccc(C#N)c(C(F)(F)F)c4)CC3)nc2)C1 (stereo not drawn) [Example 180, 1-(4-cyano-3-(trifluoromethyl)phenyl)-N-(5-(3-((4-(((2-(2,6-dioxopiperidin-3-yl)-1,3-dioxoisoindolin-5-yl)oxy)methyl)piperidin-1-yl)methyl)-3-methylazetidin-1-yl)pyridin-2-yl)piperidine-4-carboxamide]",inhibition at 0.01 µM,36%
same,inhibition at 0.1 µM,97%
same,inhibition at 1 µM,98%
